Results on two molecules are retold here after patent US20220280507A1, “USES OF 5-METHYLTETRAHYDROFOLATE AND ITS COMPOSITION” (Lianyungang Jinkang Hexin Pharmaceutical Co., Ltd., priority 2019, published 2022).

Assay [1] has as its system IL-1β. The assay is described as follows: LPS-induced inflammatory response in astrocytes, IL-1β release (ELISA). Type of assay: cell-based, Kunming mice. The note with it: culture supernatant, LPS 1 μg·ml-1 + substance 10 μg·ml-1, 24 h, n=6. From the text: (§1) Experiment 9 Inhibition of 5-Methyltetrahydrofolate and Curcumin on LPS-Induced Inflammatory Response in Astrocytes
(§2) The cerebral cortex of Kunming mice at 1˜2 d was taken out under aseptic conditions, washed 3 times with cold PBS after removing residual meninges and blood vessels, prepared into single cell suspension by blowing, centrifuged, the supernatant was discarded, and the precipitant was resuspended in AST basic medium (high-sugar DMEM containing 10% FBS). The suspension was inoculated into a culture flask coated with poly-L-lysine (0.1 mg/ml), and cultured in a CO2 incubator. After 24 h, tissue debris and non-adherent cells were removed by replacing the medium. Afterwards, the medium was replaced every 3 days until the cells reached 80% confluence, then the flask was placed on a constant temperature rotary shaker, where the suspension was centrifuged at 180 r/min, 37° C. for 18 h to remove oligodendrocytes and microglia from the upper layer. Then trypsin digestion was used for subculture. […]
(§3) LPS (1 μg·ml-1), LPS (1 μg·ml-1)+curcumin (10 μg·ml-1), LPS (1 μg·ml-1)+5-MTHF-Ca (10 μg·ml-1); experimental group: LPS (1 μg·ml-1)+curcumin (5 μg·ml-1)+5-MTHF-Ca (5 μg·ml-1). After 24 h, the culture supernatant was collected, and the cytokines IL-6, IL-1β and TNF-α were detected by ELISA.

Assay [2] has as its system TNF-α. In words: LPS-induced inflammatory response in astrocytes, TNF-α release (ELISA). In kind it is cell-based, Kunming mice. To be noted: culture supernatant, LPS 1 μg·ml-1 + substance 10 μg·ml-1, 24 h, n=6.
From the text: as §1, §2, §3
On the technique in general: In an ELISA, binding on a coated surface is turned into a signal by an enzyme label.

Assay [3] deals with IL-6. In words: LPS-induced inflammatory response in astrocytes, IL-6 release (ELISA). The note with it: culture supernatant, LPS 1 μg·ml-1 + substance 10 μg·ml-1, 24 h, n=6. Type of assay: cell-based, Kunming mice.
From the text: as §1, §2, §3

Assay [4] relates to IL-1β. In words: Alcoholic fatty liver model, IL-1β in hippocampus tissue (ELISA). To be noted: liquor model, 50 mg·kg−1·d−1 ig 60 d, n=16. In kind it is in vivo, SD rats. The protocol:
(§4) According to their weight, they were randomly divided into vehicle control group (purified water, ig), model control group (liquor, 10 ml·Kg−1), positive control group (bicyclol, 50 mg·Kg−1, ig), folic acid calcium salt high-dose group (4 mg·Kg−1), folic acid calcium salt medium-dose group (2 mg·Kg−1), folic acid calcium salt low-dose group (1 mg·Kg−1), in half female and half male, and 16 rats in each group. Purified water was used as a negative control, and bicyclol (place of origin: Beijing Xiehe Pharmaceutical Factory, specification: 25 mg/tablet, batch number: H20040467) was used as a positive control drug. Route of administration: all were administered by oral gavage. Dosage of administration: 1 mg·Kg−1, 2 mg·Kg−1, and 4 mg·Kg−1. Frequency of administration: once a day for 60 consecutive days.
(§5) Method of administration: administration started at prescribed doses on the day of modeling for 60 consecutive days and ended at the 60th day. At the same time, rats in each group were weighed every other week during administration period to monitor their body weight changes. On the 61st day, rats were dissected and serum was collected for determination of triglyceride (TG), total cholesterol (TC), malondialdehyde (MDA), superoxide dismutase (SOD) and liver histopathologic examination. The brain tissue of rats was taken out, and hippocampus tissue was separated on ice plate, prepared to homogenate with a mass fraction of 10% with purified water, then the homogenate was centrifuged to obtain supernatant. ELISA was used to detect the levels of inflammatory factors TNF-α and IL-1β in hippocampus tissue with continuous spectrum scanning microplate reader.

Assay [5] deals with hyperlipemia rats. In words: Hyperlipemia rats (high-fat diet), body mass, liver mass, liver index, NASH pathology. Type of assay: in vivo, SD rats. The note with it: positive drug group, 60 d. The protocol:
(§6) Experiment 5 Effect of 5-Methyltetrahydrofolate Calcium on Hyperlipemia Rats
(§7) 7 weeks later, one rat in the control group and one rat in the model group were sacrificed for liver tissue section to check fatty degeneration of hepatocytes (see Table 7) to confirm whether modeling was successful. The remaining 40 modeling rats were randomly divided into low-dose (1 mg·Kg−1) group, medium-dose (2 mg·Kg−1) group, high-dose (4 mg·Kg−1) group, positive drug group, and model group.
(§8) Bicyclol (place of origin: Beijing Xiehe Pharmaceutical Factory, specification: 25 mg/tablet, batch number: H20040467) was used as a positive drug.
(§9) After successful modeling, rats were administered drugs with dosages as prescribed for 60 consecutive days, continued to be fed with high-fat diet, and dissected on the 61st day. Liver was harvested and weighed, liver index was calculated, right lobe tissue was taken to prepare frozen sections, and fat staining was performed with Sudan III for pathological scoring according to guidelines for diagnosis and treatment of NAFLD. Another liver tissue was taken to prepare homogenate, and total cholesterol (TC), triglyceride (TG), malondialdehyde (MDA), and superoxide dismutase (SOD) in serum were detected.

Assay [6] has as its system alcoholic liver damage and fatty liver. The assay is described as follows: Alcoholic fatty liver model, serum TG, TC, SOD, MDA and liver histopathology. In kind it is in vivo, SD rats. The protocol:
as §4, with “96 SPF-grade SD rats were chosen in half female and half male with an average weight of 176-220 g at the beginning of the experiment. According” for “According”, “days. Erguotou (batch number: 201603092, specification: 2L, place of origin: Beijing Shunxin Agriculture Co., Ltd.) model establishing method: gavage with diluted 56-degree Erguotou twice a day for 60 consecutive days.” for “days.”
as §5

For assay [7], the system named is hyperlipemia rats. The assay is described as follows: Hyperlipemia rats (high-fat diet), biochemical indexes TG, TC, SOD, MDA. Type of assay: in vivo, SD rats. The note with it: 50 mg·kg−1·d−1, 60 d. The protocol: as §6, §7, §8, §9
Assay [8] in a line: Alcoholic fatty liver model, body weight during administration period. In kind it is in vivo, SD rats. To be noted: liquor model, 50 mg·kg−1·d−1 ig. The protocol:
as §4, §5

Assay [9] deals with TNF-α. In words: Alcoholic fatty liver model, TNF-α in hippocampus tissue (ELISA). To be noted: liquor model, 50 mg·kg−1·d−1 ig 60 d, n=16. Type of assay: in vivo, SD rats. How it is done:
as §4, §5

Where [10] appears, read: day 61, liquor model, 50 mg·kg−1·d−1 ig 60 d, n=16.
[11] abbreviates: serum day 61, liquor model, 50 mg·kg−1·d−1 ig 60 d, n=16.

Turning to `COc1cc(/C=C/C(=O)CC(=O)/C=C/c2ccc(O)c(OC)c2)ccc1O` [Cur, curcumin, reference compound], the IL-1β in assay [1] came to 742.12 ± 10.33 pg/mL. The TNF-α in [2] was 492.32 ± 8.92 pg/mL. In [3], the IL-6 came to 1003.97 ± 60.33 pg/mL.
`COC(=O)c1cc(OC)c2c(c1-c1c(CO)cc(OC)c3c1OCO3)OCO2` [bicyclol, reference compound]: the “IL-1β in hippocampus tissue” value in assay [4] is recorded as 73.93 ± 9.37 μg · g^−1 prot. The same molecule displayed a Body mass in assay [5] (8 cases) of 453.8 ± 34.7 g. In [5] (8 cases), this molecule yielded a Liver index of 3.2 ± 0.4. The same molecule yielded a Liver mass in assay [5] (8 cases) of 14.6 ± 4.5 g. For the same molecule, in [5] (of 8 cases), the “Pathological state (NASH)” value came out at 2 cases. For the same molecule, the MDA in [6] (setting [10]) worked out at 70.41 ± 20.33 nmol/mgprot; in assay [7], 72.39 ± 19.23 nmol/mgprot. The results for the SOD in [6] (setting [10]) and in assay [7] were 167.47 ± 18.91^ U/mgprot and 157.41 ± 16.45^ U/mgprot, respectively. Also, in assay [6] (liquor model, positive drug group 50 mg·Kg−1 ig 60 d), the “Pathological examination of liver” value is “no hyperplasia of interstitial connective tissue and fatty degeneration of hepatocytes”. In addition, the TC was determined as 1.45 ± 0.43 mmol/L in [6] (setting [11]) and 1.45 ± 0.63 mmol/L in [7]. Further, the TG in assay [6] (setting [11]) turned out to be 1.03 ± 0.34 mmol/L; in assay [7], 1.23 ± 0.35 mmol/L. Also, the Body weight in [8] (Week 0, n=16) was found to be 188.19 g; in assay [8] (Week 1, n=16) it was 211.95 g; in [8] (Week 2, n=16), 279.31 g; in [8] (Week 3, n=16), 292.58 g; in assay [8] (Week 4, n=16), 317.80 g; in assay [8] (Week 5, n=16), 313.19 g. Moreover, the Body weight in [8] (Week 6, n=16) is on record as 333.57 g; in [8] (Week 7, n=16), 360.01 g; in assay [8] (Week 8, n=16), 380.37 g. The “TNF-α in hippocampus tissue” value in assay [9] was 286.32 ± 43.79.* μg · g^−1 prot.
